# Results published in US6472227B1, “Barbiturate assay, tracers, immunogens, antibodies and kit” (Abbott Laboratories, priority 1986, dated 2002).
# Assays:
# [1] = Long-term tracer stability: polarization and net intensity after storage (Tables 2(a), 2(b)); assay type: physicochemical
# From the text: The data presented in Tables 2(a) and 2(b) below indicate that a tracer which has an ethylene (—CH═CH—) linkage group between the fluorescein and the ligand component of the tracer remains stable at varied temperatures for a period of at least one and one half years. While a tracer having the chemical structure shown in FIG. 5 was employed to generate the data presented in Table 2(a), a tracer having the chemical structure shown in FIG. 30 was employed to generate the data presented in Table 2(b).
# [2] = system: antibodies raised against an immunogen having the structure shown in FIG. 29; assay: Fluorescence polarization immunoassay cross-reactivity, tracer of FIG. 31; assay type: binding, sheep; conditions: tracer FIG. 31
# Experimental: (§1) The antibodies of the present invention are prepared by eliciting a response in sheep to the immunogens described supra. The immunogen is administered to animals or to in vitro cultures of immunocompetent cells by a series of innoculations, in a manner well known to those skilled in the art.
# [3] = system: antibodies raised against an immunogen having the structure shown in FIG. 28; assay: Fluorescence polarization immunoassay cross-reactivity in drug-free normal human urine, tracer of FIG. 5; assay type: binding, sheep; conditions: for amount of the test compound found in the resulting human urine: 200 ng/mL added to drug-free urine, secobarbital standard
# Experimental: as §1
# (§2) The tracer formulation presently preferred is 150 nanomolar tracer in: 0.1 molar phosphate buffer at pH 6.2; 5% sodium 5-sulfosalicylate; 0.1% sodium azide; and 0.01% bovine gamma-globulin. The antiserum formulation comprises sheep serum diluted with: 0.1 molar tris buffer at pH 7.5; 0.1% sodium azide; 0.1% bovine gamma-globulin; and 2% ethylene glycol (volume/volume). The dilution buffer comprises: 0.1 molar sodium phosphate at pH 7.5; 0.1% sodium azide; and 0.01% bovine gamma-globulin. The pretreatment solution comprises: 0.01% bovine gamma-globulin; 0.1 molar tris buffer at pH 7.5; 0.1% sodium azide; and 10 mg/mL riboflavin binding protein.
# (§3) A minimum of fifty microliters of urine is required. The calibrators, controls, or unknown samples are pipetted directly into the sample well of the TDx® or ADx® sample cartridge. […] The assay procedure from this point is fully automated.
# (§4) If a manual assay is being performed, then the sample is mixed with the pretreatment solution in dilution buffer and a background reading is taken. The tracer and antibody are then mixed into the test solution. After incubation, a fluorescence polarization reading is taken.
# (§5) The net fluorescence polarization value of each calibrator, control or sample is determined and is printed on the output tape of an instrument such as the Abbott TDx® Analyzer. […] The concentration of each control or sample is read off the stored calibration curve and printed on the output tape.
# Cross-reactivity was tested by the method of the present invention for the commonly-used barbiturates. […]
# The five columns indicate the following information:
# In other words, when 200 ng of secobarbital were added to drug-free normal human urine, approximately 200 ng of secobarbital were detected in the resulting urine sample. Thus, the closer the factor is to 1.0, the more accurate the assay is with respect to the particular test compound analyzed.
# The percent cross-reactivity value presented in column five was obtained by the following mathematical formula: [formula]
# (§6) The five columns in Tables 4(a) and 4(b) indicate the same information as is described above for Table 3(a).
# [4] = system: antibodies raised against an immunogen having the structure shown in FIG. 29; assay: Fluorescence polarization immunoassay cross-reactivity in drug-free normal human urine, tracer of FIG. 30; assay type: binding, sheep; conditions: for % CR / Conc. Found: tracer FIG. 30; for amount of the test compound found in the resulting human urine: 200 ng/mL added to drug-free urine, secobarbital standard
# Experimental: as §1, §2, §3, §4, §5
# Cross-reactivity was tested by the method of the present invention for the commonly-used barbiturates. In each case, compounds were assayed on the Abbott Laboratories+ TDx® Clinical Analyzer or the ADx® Drugs of Abuse System after adding a known quantity (200 ng/mL) of the barbiturate test compound to drug-free normal human urine.
# as §6
# [5] = 200 ng/mL added, listed as secobarbital
compound,measurement,setting,value
CCCC(C)C1(C/C=C/C(=O)NCc2c(O)ccc3c2Oc2cc(O)ccc2C32OC(=O)c3ccccc32)C(=O)NC(=O)NC1=O (stereo not shown) [FIG. 5],Average Net Intensity,"[1]; 1 Year, 2-8 °C",3161-4615
same,Polarization,"[1]; 1 Year, 2-8 °C",204.85
same,Average Net Intensity,"[1]; 18 Months, 2-8 °C",3304-4798
same,Polarization,"[1]; 18 Months, 2-8 °C",199.29
same,Average Net Intensity,"[1]; Day 0, 2-8 °C",3400-5000
same,Polarization,"[1]; Day 0, 2-8 °C",209.17
same,Average Net Intensity,"[1]; Day 1, 2-8 °C",3290-4733
same,Polarization,"[1]; Day 1, 2-8 °C",206.61
same,Average Net Intensity,"[1]; Day 2, 2-8 °C",3200-4670
same,Polarization,"[1]; Day 2, 2-8 °C",207.07
same,Average Net Intensity,"[1]; Day 3, 2-8 °C",3367-4895
same,Polarization,"[1]; Day 3, 2-8 °C",208.05
same,Average Net Intensity,"[1]; Day 3, 37 °C",3400-4910
same,Polarization,"[1]; Day 3, 37 °C",207.60
same,Average Net Intensity,"[1]; Day 3, 45 °C",3400-4950
same,Polarization,"[1]; Day 3, 45 °C",205.51
same,Average Net Intensity,"[1]; Day 3, −20 °C",3395-4965
same,Polarization,"[1]; Day 3, −20 °C",207.38
same,Average Net Intensity,"[1]; Month 2, 2-8 °C",3282-4777
same,Polarization,"[1]; Month 2, 2-8 °C",207.21
same,Average Net Intensity,"[1]; Month 4, 2-8 °C",3210-4775
same,Polarization,"[1]; Month 4, 2-8 °C",205.59
same,Average Net Intensity,"[1]; Month 8, 2-8 °C",3150-4677
same,Polarization,"[1]; Month 8, 2-8 °C",206.85
same,Average Net Intensity,"[1]; Week 1, 2-8 °C",3400-4900
same,Polarization,"[1]; Week 1, 2-8 °C",208.25
same,Average Net Intensity,"[1]; Week 1, 37 °C",3500-5000
same,Polarization,"[1]; Week 1, 37 °C",202.78
same,Average Net Intensity,"[1]; Week 1, 45 °C",3550-5200
same,Polarization,"[1]; Week 1, 45 °C",200.11
same,Average Net Intensity,"[1]; Week 1, −20 °C",3300-4800
same,Polarization,"[1]; Week 1, −20 °C",208.46
same,Average Net Intensity,"[1]; Week 2, 2-8 °C",3100-4590
same,Polarization,"[1]; Week 2, 2-8 °C",210.41
same,Average Net Intensity,"[1]; Week 2, −20 °C",3180-4635
same,Polarization,"[1]; Week 2, −20 °C",208.85
same,Average Net Intensity,"[1]; Week 4, 2-8 °C",3395-4988
same,Polarization,"[1]; Week 4, 2-8 °C",210.35
CC(C(=O)O)c1cccc(Oc2ccccc2)c1 (stereo not shown) [Fenoprofen],% CR,[2]; Conc. Added 200 (ng/mL),0.02%
same,Conc. Found,[2]; Conc. Added 200 (ng/mL),40 ng/mL
same,amount of the test compound found,[3]; 215 μg/mL added,180 ng/mL
same,factor,[3]; 215 μg/mL added,0.00084
same,percent cross reactivity,[3]; 215 μg/mL added,0.084%
same,amount of the test compound found,[3]; 430 μg/mL added,290 ng/mL
same,factor,[3]; 430 μg/mL added,0.00067
same,percent cross reactivity,[3]; 430 μg/mL added,0.067%
same,% CR,[4]; Conc. Added 200 (ng/mL),0.015%
same,Conc. Found,[4]; Conc. Added 200 (ng/mL),30 ng/mL
CCC1(c2ccccc2)CCC(=O)NC1=O (stereo not shown) [Glutethimide],% CR,[2]; Conc. Added 10 (ng/mL),4.70%
same,Conc. Found,[2]; Conc. Added 10 (ng/mL),470 ng/mL
same,amount of the test compound found,[3]; 1 μg/mL added,ND (None detected: Concentration less than the sensitivity of the assay (60 ng/mL))
same,amount of the test compound found,[3]; 10 μg/mL added,180 ng/mL
same,factor,[3]; 10 μg/mL added,0.018
same,percent cross reactivity,[3]; 10 μg/mL added,1.80%
same,amount of the test compound found,[4]; 1 μg/mL added,89 ng/mL
same,factor,[4]; 1 μg/mL added,0.089
same,percent cross reactivity,[4]; 1 μg/mL added,8.90%
same,amount of the test compound found,[4]; 10 μg/mL added,480 ng/mL
same,factor,[4]; 10 μg/mL added,0.048
same,percent cross reactivity,[4]; 10 μg/mL added,4.80%
same,% CR,[4]; Conc. Added 10 (ng/mL),4.70%
same,Conc. Found,[4]; Conc. Added 10 (ng/mL),470 ng/mL
CC(C)Cc1ccc(C(C)C(=O)O)cc1 (stereo not shown) [Ibuprofen],% CR,[2]; Conc. Added 1000 (ng/mL),0.005%
same,Conc. Found,[2]; Conc. Added 1000 (ng/mL),50 ng/mL
same,amount of the test compound found,[3]; 1 μg/mL added,ND (None detected: Concentration less than the sensitivity of the assay (60 ng/mL))
same,amount of the test compound found,[3]; 10 μg/mL added,ND (None detected: Concentration less than the sensitivity of the assay (60 ng/mL))
same,amount of the test compound found,[3]; 100 μg/mL added,70 ng/mL
same,factor,[3]; 100 μg/mL added,0.0007
same,percent cross reactivity,[3]; 100 μg/mL added,0.07%
same,% CR,[4]; Conc. Added 1000 (ng/mL),0.002%
same,Conc. Found,[4]; Conc. Added 1000 (ng/mL),20 ng/mL
CC(C(=O)O)c1ccc(CC(C)(C)O)cc1 (stereo not shown) [OH-Ibuprofen],amount of the test compound found,[3]; 1 μg/mL added,ND (None detected: Concentration less than the sensitivity of the assay (60 ng/mL))
same,amount of the test compound found,[3]; 10 μg/mL added,ND (None detected: Concentration less than the sensitivity of the assay (60 ng/mL))
same,amount of the test compound found,[3]; 100 μg/mL added,ND (None detected: Concentration less than the sensitivity of the assay (60 ng/mL))
same,amount of the test compound found,[3]; 1000 μg/mL added,60 ng/mL
same,factor,[3]; 1000 μg/mL added,0.00006
same,percent cross reactivity,[3]; 1000 μg/mL added,0.006%
CCCC(C)C1(CC)C(=O)NC(=O)NC1=O (stereo not shown) [Pentobarbital],% CR,[2]; Conc. Added 1200 ng/mL,64%
same,Conc. Found,[2]; Conc. Added 1200 ng/mL,770 ng/mL
same,factor which overestimates or underestimates the compound assayed for,[3]; 200 ng/mL added,1.05
same,percent cross reactivity,[3]; 200 ng/mL added,105%
same,amount of the test compound found in the resulting human urine,[3],210 ng/mL
same,factor which overestimates or underestimates the compound assayed for,[4]; 200 ng/mL added,0.65
same,percent cross reactivity,[4]; 200 ng/mL added,65%
same,amount of the test compound found in the resulting human urine,[4],129 ng/mL
same,% CR,[4]; Conc. Added 1200 ng/mL,62%
same,Conc. Found,[4]; Conc. Added 1200 ng/mL,740 ng/mL
C=CCC1(C(C)CCC)C(=O)NC(=O)NC1=O (stereo not shown) [Secobarbital],factor which overestimates or underestimates the compound assayed for,[3]; 200 ng/mL added,1.00
same,percent cross reactivity,[3]; 200 ng/mL added,100%
same,amount of the test compound found in the resulting human urine,[3],200 ng/mL
same,factor which overestimates or underestimates the compound assayed for,[3]; [5],1.0
same,percent cross reactivity,[3]; [5],100%
same,factor which overestimates or underestimates the compound assayed for,[4]; 200 ng/mL added,1.00
same,percent cross reactivity,[4]; 200 ng/mL added,100%
same,amount of the test compound found in the resulting human urine,[4],200 ng/mL
Butobarbital,% CR,[4]; Conc. Added 1200 ng/mL,48%
same,Conc. Found,[4]; Conc. Added 1200 ng/mL,580 ng/mL
